This is an account of results in patent US9334279B2, “Hepatitis C virus inhibitors” (BRISTOL-MYERS SQUIBB COMPANY, priority 2012, dated 2016).

The EC50 is the concentration at which the effect is half-maximal.

The subject of one assay is HCV GT1b(Con1) replicon. The assay is described as follows: HCV replicon luciferase reporter assay, genotype 1b. As to conditions: Hepatitis C virus, 72 h, HUH-7 cells, Renilla luciferase, 3 days incubation, read-out: LE_1b (EC50, range). It is filed as cell-based, HCV genotype 1b. In outline:
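HUH-7 cells stably carrying a Con1 GT1b replicon with Renilla luciferase and Ser1179Ile adaptive mutation; 3.0×10^3 cells/well, DMEM 4% FCS, 0.5% DMSO, twenty-point 3-fold titration, 3 days 37 °C. Luminescence 2 h after 7.5 μM EnduRen; EC50 by four-parameter logistic fit. CC50 from multiplexed Cell Titer-Blue fluorescence (8 h).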

The next assay deals with HCV GT1a(H77) replicon. Kind of assay: HCV replicon luciferase reporter assay, genotype 1a. The format is cell-based, HCV genotype 1a. As to conditions: Hepatitis C virus, 72 h, HUH-7 cells, Renilla luciferase, 3 days incubation, read-out: LE_1a (EC50, range). In outline: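 Huh-7 cells stably carried a GT1a(H77) Renilla luciferase replicon with NS3 P1496L and NS5A S2204I adaptive mutations. Luminescence was read after 2 h with 7.5 μM EnduRen, and EC50 came from a four-parameter logistic fit; CC50 came from multiplexed Cell Titer-Blue (8 h).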
Background: A replicon is a self-replicating genome or part of one, used to study replication in cells.

Turning to `CC(C)Oc1ccc(-c2cc(Cl)cc(O[C@@H]3C[C@H]4C(=O)N[C@]5(C(=O)NS(=O)(=O)C6(C)CC6)C[C@H]5/C=C\CC[C@H](C)C[C@@H](C)[C@H](NC(=O)OC(C)(C)C(F)(F)F)C(=O)N4C3)n2)cc1` [Compound 1028, 1,1,1-trifluoro-2-methylpropan-2-yl ((2R,6S,7R,9S,13aS,14aR,16aS,Z)-2-((4-chloro-6-(4-isopropoxyphenyl)pyridin-2-yl)oxy)-7,9-dimethyl-14a-(((1-methylcyclopropyl)sulfonyl)carbamoyl)-5,16-dioxo-1,2,3,5,6,7,8,9,10,11,13a,14,14a,15,16,16a-hexadecahydrocyclopropa[e]pyrrolo[1,2-a][1,4]diazacyclopentadecin-6-yl)carbamate], the EC50 in the assay with HCV GT1b(Con1) replicon and in the assay on HCV GT1a(H77) replicon was 35 to 359 nM in each case.
`CC(C)Oc1ccc(-c2cc(Cl)cc(O[C@@H]3C[C@H]4C(=O)N[C@]5(C(=O)NS(=O)(=O)C6(C)CC6)C[C@H]5/C=C\CC[C@@H](C)C[C@@H](C)[C@H](NC(=O)OC(C)(C)C)C(=O)N4C3)n2)cc1` [Compound 1029, tert-butyl ((2R,6S,7R,9R,13aS,14aR,16aS,Z)-2-((4-chloro-6-(4-isopropoxyphenyl)pyridin-2-yl)oxy)-7,9-dimethyl-14a-(((1-methylcyclopropyl)sulfonyl)carbamoyl)-5,16-dioxo-1,2,3,5,6,7,8,9,10,11,13a,14,14a,15,16,16a-hexadecahydrocyclopropa[e]pyrrolo[1,2-a][1,4]diazacyclopentadecin-6-yl)carbamate]: the half-maximal effective concentration (EC50) in the assay on HCV GT1b(Con1) replicon and with HCV GT1a(H77) replicon was 1.01 to 5 nM each time.
`CC(C)Oc1ccc(-c2cc(Cl)cc(O[C@@H]3C[C@H]4C(=O)N[C@]5(C(=O)NS(=O)(=O)C6(C)CC6)C[C@H]5/C=C\CC[C@H](C)C[C@@H](C)[C@H](NC(=O)OC(C)(C)C)C(=O)N4C3)n2)cc1` [Compound 1030, tert-butyl ((2R,6S,7R,9S,13aS,14aR,16aS,Z)-2-((4-chloro-6-(4-isopropoxyphenyl)pyridin-2-yl)oxy)-7,9-dimethyl-14a-(((1-methylcyclopropyl)sulfonyl)carbamoyl)-5,16-dioxo-1,2,3,5,6,7,8,9,10,11,13a,14,14a,15,16,16a-hexadecahydrocyclopropa[e]pyrrolo[1,2-a][1,4]diazacyclopentadecin-6-yl)carbamate]: the EC50 in the assay on HCV GT1b(Con1) replicon and in the assay with HCV GT1a(H77) replicon was 35 to 359 nM in each case.
As to `C[C@@H]1CC/C=C\[C@@H]2C[C@@]2(C(=O)NS(=O)(=O)C2(C)CC2)NC(=O)[C@@H]2C[C@@H](Oc3cc(-c4nccs4)ccn3)CN2C(=O)[C@@H](NC(=O)OC(C)(C)C(F)(F)F)[C@H](C)C1` [Compound 1031, 1,1,1-trifluoro-2-methylpropan-2-yl ((2R,6S,7R,9R,13aS,14aR,16aS,Z)-7,9-dimethyl-14a-(((1-methylcyclopropyl)sulfonyl)carbamoyl)-5,16-dioxo-2-((4-(thiazol-2-yl)pyridin-2-yl)oxy)-1,2,3,5,6,7,8,9,10,11,13a,14,14a,15,16,16a-hexadecahydrocyclopropa[e]pyrrolo[1,2-a][1,4]diazacyclopentadecin-6-yl)carbamate], the EC50 in the assay with HCV GT1b(Con1) replicon lay in the range of 0.51 to 1 nM; with HCV GT1a(H77) replicon, 1.01 to 5 nM.
Taken in the same sequence, the figures for `C[C@H]1CC/C=C\[C@@H]2C[C@@]2(C(=O)NS(=O)(=O)C2(C)CC2)NC(=O)[C@@H]2C[C@@H](Oc3cc(-c4nccs4)ccn3)CN2C(=O)[C@@H](NC(=O)OC(C)(C)C(F)(F)F)[C@H](C)C1` [Compound 1032, 1,1,1-trifluoro-2-methylpropan-2-yl ((2R,6S,7R,9S,13aS,14aR,16aS,Z)-7,9-dimethyl-14a-(((1-methylcyclopropyl)sulfonyl)carbamoyl)-5,16-dioxo-2-((4-(thiazol-2-yl)pyridin-2-yl)oxy)-1,2,3,5,6,7,8,9,10,11,13a,14,14a,15,16,16a-hexadecahydrocyclopropa[e]pyrrolo[1,2-a][1,4]diazacyclopentadecin-6-yl)carbamate] were 5.01 to 35 nM and 5.01 to 35 nM.
Taken in the same sequence, the figures for `CC[C@@H]1O[C@H](C)CC/C=C\[C@@H]2C[C@@]2(C(=O)NS(=O)(=O)C2(C)CC2)NC(=O)[C@@H]2C[C@@H](Oc3cc(-c4ccc(OC(C)C)cc4)nc(-c4cncs4)c3)CN2C(=O)[C@H]1NC(=O)OC(C)(C)C(F)(F)F` [Compound 1033, 1,1,1-trifluoro-2-methylpropan-2-yl ((2R,6S,7S,9R,13aS,14aR,16aS,Z)-7-ethyl-2-((2-(4-isopropoxyphenyl)-6-(thiazol-5-yl)pyridin-4-yl)oxy)-9-methyl-14a-(((1-methylcyclopropyl)sulfonyl)carbamoyl)-5,16-dioxo-2,3,5,6,7,9,10,11,13a,14,14a,15,16,16a-tetradecahydro-1H-cyclopropa[i]pyrrolo[1,2-e][1,5,8]oxadiazacyclopentadecin-6-yl)carbamate] were 0.51 to 1 nM and 1.01 to 5 nM.
Taken in the same sequence, the figures for `CC[C@@H]1O[C@H](C)CC/C=C\[C@@H]2C[C@@]2(C(=O)NS(=O)(=O)C2(C)CC2)NC(=O)[C@@H]2C[C@@H](Oc3cc(-c4ccc(OC(C)C)cc4)nc(-c4cncs4)c3)CN2C(=O)[C@H]1NC(=O)OC1(C(F)(F)F)CCCOC1` (stereo partly drawn) [Compound 1034, 3-(trifluoromethyl)tetrahydro-2H-pyran-3-yl ((2R,6S,7S,9R,13aS,14aR,16aS,Z)-7-ethyl-2-((2-(4-isopropoxyphenyl)-6-(thiazol-5-yl)pyridin-4-yl)oxy)-9-methyl-14a-(((1-methylcyclopropyl)sulfonyl)carbamoyl)-5,16-dioxo-2,3,5,6,7,9,10,11,13a,14,14a,15,16,16a-tetradecahydro-1H-cyclopropa[i]pyrrolo[1,2-e][1,5,8]oxadiazacyclopentadecin-6-yl)carbamate] were 0.51 to 1 nM and 1.01 to 5 nM.
In the case of `CC[C@@H]1O[C@H](C)CC/C=C\[C@@H]2C[C@@]2(C(=O)NS(=O)(=O)C2(C)CC2)NC(=O)[C@@H]2C[C@@H](Oc3cc(-c4ccc(OC(C)C)cc4)nc(-c4nccs4)c3)CN2C(=O)[C@H]1NC(=O)OC1(C(F)(F)F)CCCOC1` (stereo partly drawn) [Compound 1035, 3-(trifluoromethyl)tetrahydro-2H-pyran-3-yl ((2R,6S,7S,9R,13aS,14aR,16aS,Z)-7-ethyl-2-((2-(4-isopropoxyphenyl)-6-(thiazol-2-yl)pyridin-4-yl)oxy)-9-methyl-14a-(((1-methylcyclopropyl)sulfonyl)carbamoyl)-5,16-dioxo-2,3,5,6,7,9,10,11,13a,14,14a,15,16,16a-tetradecahydro-1H-cyclopropa[i]pyrrolo[1,2-e][1,5,8]oxadiazacyclopentadecin-6-yl)carbamate], the EC50 in the assay with HCV GT1b(Con1) replicon and in the assay on HCV GT1a(H77) replicon was 0.51 to 1 nM in each case.
With `CC[C@@H]1O[C@H](C)CC/C=C\[C@@H]2C[C@@]2(C(=O)NS(=O)(=O)C2(C)CC2)NC(=O)[C@@H]2C[C@@H](Oc3cc(-c4ccc(OC(C)C)cc4)nc(-c4cscn4)c3)CN2C(=O)[C@H]1NC(=O)OC1(C(F)(F)F)CCCOC1` (stereo partly drawn) [Compound 1036, 3-(trifluoromethyl)tetrahydro-2H-pyran-3-yl ((2R,6S,7S,9R,13aS,14aR,16aS,Z)-7-ethyl-2-((2-(4-isopropoxyphenyl)-6-(thiazol-4-yl)pyridin-4-yl)oxy)-9-methyl-14a-(((1-methylcyclopropyl)sulfonyl)carbamoyl)-5,16-dioxo-2,3,5,6,7,9,10,11,13a,14,14a,15,16,16a-tetradecahydro-1H-cyclopropa[i]pyrrolo[1,2-e][1,5,8]oxadiazacyclopentadecin-6-yl)carbamate], the results for the EC50 in the assay on HCV GT1b(Con1) replicon and in the assay with HCV GT1a(H77) replicon were 0.1 to 0.5 nM and 0.51 to 1 nM, respectively.
